From patent US20250206732A1, “COMPOUNDS AND METHODS FOR THE TARGETED DEGRADATION OF KRAS” (Arvinas Operations, Inc., priority 2022, published 2025)

Target: T1, AsPC-1 HiBiT-KRASG12D (Homo sapiens, UniProt P01116, G12D)
T1 construct: insert the HiBiT tag onto the N-terminus of one or more of the endogenous KRAS alleles; endogenous in cells; host or cells: AsPC-1 (ATCC CRL-1682), CRISPR-Cas9 knock-in clone, one tagged allele
Assay: HiBiT degradation assay (G12D), AsPC-1 HiBiT-KRASG12D cells
Format: cell-based
Conditions: 24 hours treatment; for Dmax: ASPC1, AsPC-1 HiBiT-KRASG12D cells, maximum degradation observed; for DC50: AsPC-1 HiBiT-KRASG12D cells, HiBiT luminescence
How it was run: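 Luminescence read-out of HiBiT-tagged endogenous KRASG12D in AsPC-1 cells after 24 h compound exposure at 37° C; lytic Nano-Glo HiBiT detection, 45 min at room temperature. A parallel alamar blue read (4 h) checked viability, normalized to DMSO-only controls.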

T1 sequence (P01116 1-188 isoform P01116-2 G12D): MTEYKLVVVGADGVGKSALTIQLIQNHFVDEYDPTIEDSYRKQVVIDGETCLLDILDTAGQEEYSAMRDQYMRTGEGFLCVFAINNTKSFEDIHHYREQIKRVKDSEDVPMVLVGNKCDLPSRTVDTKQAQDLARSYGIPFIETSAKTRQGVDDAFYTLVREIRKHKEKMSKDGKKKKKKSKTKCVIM

Row | Compound | Dmax [%] | DC50 [nM]
1 | C#Cc1c(F)ccc2cc(O)cc(-c3ncc4c(N5CC6CCC(C5)N6)nc(OCCN5CCC(CC6CN(c7cc([C@@H](C(=O)N8C[C@H](O)C[C@H]8C(=O)N[C@@H](C)c8ccc(-c9ccnn9C)cc8)C(C)C)on7)C6)CC5)nc4c3F)c12 [Compound 160, (2S,4R)-1-[(2S)-2-(3-{3-[(1-{2-[(4-{3,8-diazabicyclo[3.2.1]octan-3-yl}-7-(8-ethynyl-7-fluoro-3-hydroxynaphthalen-1-yl)-8-fluoropyrido[4,3-d]pyrimidin-2-yl)oxy]ethyl}piperidin-4-yl)methyl]azetidin-1-yl}-1,2-oxazol-5-yl)-3-methylbutanoyl]-4-hydroxy-N-[(1S)-1-[4-(1-methyl-1H-pyrazol-5-yl)phenyl]ethyl]pyrrolidine-2-carboxamide] | 20 to 60 | > 3000
2 | CCc1cccc2cc(O)cc(-c3ncc4c(N5CC6CCC(C5)N6)nc(OC[C@@]56CCCN5[C@H](CN5CCC(COc7cc([C@@H](C(=O)N8C[C@H](O)C[C@H]8C(=O)N[C@@H](C)c8ccc(-c9scnc9C)cc8)C(C)C)on7)CC5)CC6)nc4c3F)c12 [Compound 97, (2S,4R)-1-[(2S)-2-{3-[(1-{[(3S,7aS)-7a-{[(4-{3,8-diazabicyclo[3.2.1]octan-3-yl}-7-(8-ethyl-3-hydroxynaphthalen-1-yl)-8-fluoropyrido[4,3-d]pyrimidin-2-yl)oxy]methyl}-hexahydro-1H-pyrrolizin-3-yl]methyl}piperidin-4-yl)methoxy]-1,2-oxazol-5-yl}-3-methylbutanoyl]-4-hydroxy-N-[(1S)-1-[4-(4-methyl-1,3-thiazol-5-yl)phenyl]ethyl]pyrrolidine-2-carboxamide] | 20 to 60 | 600 to 1000
3 | C#Cc1c(F)ccc2cccc(-c3ncc4c(N5CC6CCC(C5)N6)nc(OC[C@]56CCCN5[C@@H](COC(=O)N5CCN(c7cc([C@H](C(=O)N8C[C@H](O)C[C@H]8C(=O)N[C@@H](C)c8ccc(-c9scnc9C)cc8)C(C)C)on7)CC5)CC6)nc4c3F)c12 (single isomer, unassigned) [Compound 333] | 80 to 100 | < 600
4 | CCc1cccc2cc(O)cc(-c3ncc4c(N5CC6CCC(C5)N6)nc(OCCN5C[C@@H]6CN(c7cc([C@H](C(=O)N8C[C@H](O)C[C@H]8C(=O)N[C@@H](C)c8ccc(-c9scnc9C)cc8)C(C)C)on7)C[C@H]6C5)nc4c3F)c12 (relative stereo) [Compound 77, (2S,4R)-1-[(2R*)-2-{3-[(3aR,6aR)-5-{2-[(4-{3,8-diazabicyclo[3.2.1]octan-3-yl}-7-(8-ethyl-3-hydroxynaphthalen-1-yl)-8-fluoropyrido[4,3-d]pyrimidin-2-yl)oxy]ethyl}-octahydropyrrolo[3,4-c]pyrrol-2-yl]-1,2-oxazol-5-yl}-3-methylbutanoyl]-4-hydroxy-N-[(1S)-1-[4-(4-methyl-1,3-thiazol-5-yl)phenyl]ethyl]pyrrolidine-2-carboxamide] | 80 to 100 | < 600
5 | C#Cc1c(F)ccc2cc(O)cc(-c3ncc4c(N5CC6CCC(C5)N6)nc(OCCN5CCC(OC6CN(c7cc([C@@H](C(=O)N8C[C@H](O)C[C@H]8C(=O)N[C@@H](C)c8ccc(-c9scnc9C)cc8)C(C)C)on7)C6)CC5)nc4c3F)c12 [Compound 158] | 80 to 100 | < 600
6 | Cc1ncsc1-c1ccc([C@H](C)NC(=O)[C@@H]2C[C@@H](O)CN2C(=O)[C@@H](c2cc(N3CCN(C(=O)OC[C@@H]4CC[C@@]5(COc6nc(N7CC8CCC(C7)N8)c7cnc(-c8cc(O)cc(Cl)c8C8CC8)c(F)c7n6)CCCN45)CC3)no2)C(C)C)cc1 (relative stereo) [Compound 258, [(3S,8R)-8-[[7-(3-chloro-2-cyclopropyl-5-hydroxy-phenyl)-4-(3,8-diazabicyclo[3.2.1]octan-3-yl)-8-fluoro-pyrido[4,3-d]pyrimidin-2-yl]oxymethyl]-1,2,3,5,6,7-hexahydropyrrolizin-3-yl]methyl 4-[5-[(1R)-1-[(2S,4R)-4-hydroxy-2-[[(1S)-1-[4-(4-methylthiazol-5-yl)phenyl]ethyl]carbamoyl]pyrrolidine-1-carbonyl]-2-methyl-propyl]isoxazol-3-yl]piperazine-1-carboxylate] | 80 to 100 | < 600
7 | CCc1cccc2cc(O)cc(-c3ncc4c(N5CC6CCC(C5)N6)nc(OCCN5CCC(F)(CC6CCN(c7cc([C@H](C(=O)N8C[C@H](O)C[C@H]8C(=O)N[C@@H](C)c8ccc(-c9scnc9C)cc8)C(C)C)on7)CC6)CC5)nc4c3F)c12 [Compound 239] | 80 to 100 | < 600
8 | CCc1cccc2cc(O)cc(-c3ncc4c(N5CCCCCC5)nc(OC[C@]56CCCN5[C@H](COC(=O)N5CCC(Oc7cc([C@@H](C(=O)N8C[C@H](O)C[C@H]8C(=O)N[C@@H](C)c8ccc(-c9scnc9C)cc8)C(C)C)on7)CC5)CC6)nc4c3F)c12 [Compound 282, [(3S,8R)-8-[[4-(azepan-1-yl)-7-(8-ethyl-3-hydroxy-1-naphthyl)-8-fluoro-pyrido[4,3-d]pyrimidin-2-yl]oxymethyl]-1,2,3,5,6,7-hexahydropyrrolizin-3-yl]methyl 4-[5-[(1S)-1-[(2S,4R)-4-hydroxy-2-[[(1S)-1-[4-(4-methylthiazol-5-yl)phenyl]ethyl]carbamoyl]pyrrolidine-1-carbonyl]-2-methyl-propyl]isoxazol-3-yl]oxypiperidine-1-carboxylate] | < 20 | 600 to 1000
9 | CCc1cccc2cccc(-c3ncc4c(N5CC6CCC(C5)N6)nc(OC[C@@]56CCCN5[C@H](COc5cc([C@H](C(=O)N7C[C@H](O)C[C@H]7C(=O)N[C@@H](C)c7ccc(-c8scnc8C)cc7)C(C)C)on5)CC6)nc4c3F)c12 [Compound 54, (2S,4R)-1-[(2R)-2-(3-{[(3S,7aS)-7a-{[(4-{3,8-diazabicyclo[3.2.1]octan-3-yl}-7-(8-ethylnaphthalen-1-yl)-8-fluoropyrido[4,3-d]pyrimidin-2-yl)oxy]methyl}-hexahydro-1H-pyrrolizin-3-yl]methoxy}-1,2-oxazol-5-yl)-3-methylbutanoyl]-4-hydroxy-N-[(1S)-1-[4-(4-methyl-1,3-thiazol-5-yl)phenyl]ethyl]pyrrolidine-2-carboxamide] | 80 to 100 | < 600
10 | CCc1cccc2cc(O)cc(-c3ncc4c(N5CC6CCC(C5)N6)nc(OC[C@@H]5CC[C@@H](COC(=O)N6CCN(c7cc([C@H](C(=O)N8C[C@H](O)C[C@H]8C(=O)N[C@@H](C)c8ccc(-c9scnc9C)cc8)C(C)C)on7)CC6)N5C)nc4c3F)c12 [Compound 50, [(2S,5S)-5-{[(4-{3,8-diazabicyclo[3.2.1]octan-3-yl}-7-(8-ethyl-3-hydroxynaphthalen-1-yl)-8-fluoropyrido[4,3-d]pyrimidin-2-yl)oxy]methyl}-1-methylpyrrolidin-2-yl]methyl 4-{5-[(2R)-1-[(2S,4R)-4-hydroxy-2-{[(1S)-1-[4-(4-methyl-1,3-thiazol-5-yl)phenyl]ethyl]carbamoyl}pyrrolidin-1-yl]-3-methyl-1-oxobutan-2-yl]-1,2-oxazol-3-yl}piperazine-1-carboxylate] | 80 to 100 | < 600
11 | C#Cc1c(F)ccc2cc(O)cc(-c3ncc4c(N5CC6CCC(C5)N6)nc(OCCN5CC[C@H]6CN(c7cc([C@H](C(=O)N8C[C@H](O)C[C@H]8C(=O)N[C@@H](C)c8ccc(-c9scnc9C)cc8)C(C)C)on7)C[C@H]6C5)nc4c3F)c12 [Compound 183, (2S,4R)-1-[(2R)-2-{3-[(3aR,7aR)-5-{2-[(4-{3,8-diazabicyclo[3.2.1]octan-3-yl}-7-(8-ethynyl-7-fluoro-3-hydroxynaphthalen-1-yl)-8-fluoropyrido[4,3-d]pyrimidin-2-yl)oxy]ethyl}-octahydro-1H-pyrrolo[3,4-c]pyridin-2-yl]-1,2-oxazol-5-yl}-3-methylbutanoyl]-4-hydroxy-N-[(1S)-1-[4-(4-methyl-1,3-thiazol-5-yl)phenyl]ethyl]pyrrolidine-2-carboxamide] | 80 to 100 | < 600
12 | CCc1cccc2cc(O)cc(-c3ncc4c(N5CC6CCC(C5)N6)nc(OCCN5CC[C@H]6CN(c7cc([C@@H](C(=O)N8C[C@H](O)C[C@H]8C(=O)N[C@@H](C)c8ccc(-c9scnc9C)cc8)C(C)C)on7)C[C@H]6C5)nc4c3F)c12 (relative stereo) [Compound 70, (2S,4R)-1-[(2R*)-2-{3-[(3aR**,7aR***)-5-{2-[(4-{3,8-diazabicyclo[3.2.1]octan-3-yl}-7-(8-ethyl-3-hydroxynaphthalen-1-yl)-8-fluoropyrido[4,3-d]pyrimidin-2-yl)oxy]ethyl}-octahydro-1H-pyrrolo[3,4-c]pyridin-2-yl]-1,2-oxazol-5-yl}-3-methylbutanoyl]-4-hydroxy-N-[(1S)-1-[4-(4-methyl-1,3-thiazol-5-yl)phenyl]ethyl]pyrrolidine-2-carboxamide] |  | > 3000
13 | CCc1cccc2cc(O)cc(-c3ncc4c(N5CCCCCC5)nc(OC[C@@H]5CC[C@@H](COC(=O)N6CC(Oc7cc([C@H](C(=O)N8C[C@H](O)C[C@H]8C(=O)N[C@@H](C)c8ccc(-c9scnc9C)cc8)C(C)C)on7)C6)N5C)nc4c3F)c12 [Compound 241] | 60 to 80 | < 600
14 | CCc1cccc2cc(O)cc(-c3ncc4c(N5CC6CCC(C5)N6)nc(OC[C@]56CCCN5[C@H](COC(=O)N5CCN(c7cc([C@@H](C(=O)N8C[C@H](O)C[C@H]8C(=O)N[C@@H](C)c8ccc(-c9scnc9C)cc8)C(C)C)on7)C[C@H]5C)CC6)nc4c3F)c12 [Compound 125, [(3S,7aR)-7a-{[(4-{3,8-diazabicyclo[3.2.1]octan-3-yl}-7-(8-ethyl-3-hydroxynaphthalen-1-yl)-8-fluoropyrido[4,3-d]pyrimidin-2-yl)oxy]methyl}-hexahydro-1H-pyrrolizin-3-yl]methyl (2R)-4-{5-[(2S)-1-[(2S,4R)-4-hydroxy-2-{[(1S)-1-[4-(4-methyl-1,3-thiazol-5-yl)phenyl]ethyl]carbamoyl}pyrrolidin-1-yl]-3-methyl-1-oxobutan-2-yl]-1,2-oxazol-3-yl}-2-methylpiperazine-1-carboxylate] | 20 to 60 | 600 to 1000
